Results from EP1100483B1, “GLUCOCORTICOID-SELECTIVE ANTI-INFLAMMATORY AGENTS” (Abbott Laboratories, priority 1998, dated 2000).

Target: T1, human glucocorticoid receptor-α [GRX] isoform (Homo sapiens, UniProt P04150)
T1 construct: purchased Ligand Pharmaceuticals (San Diego, CA); host or cells: insect SF21 cells (baculovirus)
T1 sequence (P04150 1-777): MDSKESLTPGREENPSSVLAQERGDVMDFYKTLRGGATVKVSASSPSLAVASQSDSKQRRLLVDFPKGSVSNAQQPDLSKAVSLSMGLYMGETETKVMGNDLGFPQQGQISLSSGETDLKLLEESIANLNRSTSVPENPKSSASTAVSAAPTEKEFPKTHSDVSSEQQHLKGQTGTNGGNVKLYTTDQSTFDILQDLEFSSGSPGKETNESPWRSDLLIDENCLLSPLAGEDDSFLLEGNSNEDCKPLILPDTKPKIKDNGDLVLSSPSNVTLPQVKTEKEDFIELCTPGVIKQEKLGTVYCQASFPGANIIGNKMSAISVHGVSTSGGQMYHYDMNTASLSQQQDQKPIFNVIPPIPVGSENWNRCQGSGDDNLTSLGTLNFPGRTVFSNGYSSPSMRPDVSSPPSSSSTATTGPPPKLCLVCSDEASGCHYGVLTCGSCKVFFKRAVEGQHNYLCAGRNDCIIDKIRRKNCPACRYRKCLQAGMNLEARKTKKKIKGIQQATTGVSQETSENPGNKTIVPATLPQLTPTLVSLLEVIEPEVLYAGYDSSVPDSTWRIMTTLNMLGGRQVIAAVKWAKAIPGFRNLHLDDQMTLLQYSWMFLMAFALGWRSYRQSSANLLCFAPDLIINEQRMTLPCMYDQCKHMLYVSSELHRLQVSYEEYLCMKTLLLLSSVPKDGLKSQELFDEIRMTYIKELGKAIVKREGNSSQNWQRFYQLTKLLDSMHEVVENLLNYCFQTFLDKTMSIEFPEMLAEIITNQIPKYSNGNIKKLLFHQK
Experiment: glucocorticoid receptor (GR) cytosol binding assay, [3H]-dexamethasone competition
Settings: not given
Text: For glucocorticoid receptor (OR) cytosol binding assays, the procedure described in Anal. […] Briefly, cytosol preparations of human glucocorticoid receptor-α [GRX] isoform and human progesterone receptor-A [PRA] isoform were obtained from Ligand Pharmaceuticals (San Diego, CA). Both receptor cDNAs were cloned into baculovirus expression vectors and expressed in insect SF21 cells. […] Glass fiber type C multiscreen MAFC NOB plates were from Millipore ( Burlington, MA). Hydroxyapatide Bio-Gel HTP gel was obtained from Bio-Rad Laboratories (Hercules. CA). Tris(hydroxymethyl)aminomethane (Tris), ethylenediaminetetraacetic acid (EDTA), glycerol, dithiothreitol (DTT) and sodium moylybdate were obtained from Sigma Chemicals (St. Louis, MO). Microscint-20 scintillation fluid was obtained from Packard Instrument (Meriden, CT). […] GRX and PRA binding reactions were performed in Millipore Multiscreen plates. […] Specific binding was defined as the difference between binding of [^3H]Dex in the absence and in the presence of 1µM unlabeled Dex. After an overnight incubation, 50 µL of hydroxyapatite (25 % weight/volume) slurry were added to each well and plates were incubated for 10 min at 4 °C in a plate shaker. Plates were suctioned with a Millipore vacuum manifold and each well was rinsed with 300 µL of ice-cold binding buffer. A 250 µL aliquot of Packard Microscint-20 was added to each well and the wells were shaken at room temperature for 20 minutes. The amount of radioactivity was determined with a Packard TopCount plate reader.

Going from `CN(C)c1ccc(C(c2ccc(N(C)C)cc2)c2cc3c(cc2Cl)OCO3)cc1` [Example 19, 4',4" bis(dimethylamino)-2-chloro-4,5-methylenedioxytriphenylmethane] to `CN(C)c1ccc(C(c2ccc(N(C)C)cc2)c2ccc(Cl)cc2Cl)cc1` [Example 18, 4',4" bis(dimethylamino)-2,4-dichlorotriphenylmethane], the Ki rises from 1600 nM to 5000 nM (3.1-fold). The first binds more tightly here.

Going from `CN(C)c1ccc(C(c2ccc(N(C)C)cc2)c2ccccc2I)cc1` [Example 26, 4',4" bis(dimethylamino)-2-iodotriphenylmethane] to `CN(C)c1ccc(C(c2ccc(N(C)C)cc2)c2ccccc2F)cc1` [Example 25, 4',4" bis(dimethylamino)-2-fluorotriphenylmethane], the Ki rises from 734 nM to 5270 nM (7.2-fold). The first binds more tightly here.

`CN(C)c1ccc(C(c2ccc(N(C)C)cc2)c2cc(I)ccc2Cl)cc1` [Example 33, 4'.4" bis(dimethylamino)-2-chloro-5-iodotriphenylmethane] and `CN(C)c1ccc(C(c2ccc(N(C)C)cc2)c2cccc(Cl)c2Cl)cc1` [Example 21, 4',4" bis(dimethylamino)-2,3-dichlorotriphenylmethane] are within 1.5-fold of each other in Ki: 2300 nM for the first, 1890 nM for the second.

Going from `CCCCN(CCCC)c1ccc(C(c2ccc(N(C)C)cc2)c2cc([N+](=O)[O-])ccc2Cl)cc1` (stereo not drawn) [Example 43, 4'-dimethylamino-4"-(di-n-butylamino)-2-chloro-5-nitrotriphenylmethane] to `Cc1cc(C(c2ccc(N(C)C)cc2)c2cc([N+](=O)[O-])ccc2Cl)ccc1N(C)C` (stereo not drawn) [Example 44, 3'-methyl-4',4"-bis(dimethylamino)-2-chloro-5-nitrotriphenylmethane], the Ki falls from 4490 nM to 287 nM (16-fold). The second binds more tightly here.

`CN(C)c1ccc(C(c2ccc(N(C)C)cc2)c2ccccc2C(F)(F)F)cc1` [Example 10, 4',4" bis(dimethylamino)-2-trifluoromethyltriphenylmethane] and `Cc1ccccc1C(c1ccc(N(C)C)cc1)c1ccc(N(C)C)cc1` [Example 15, 4',4" bis(dimethylamino)-2-methyltriphenylmethane] are within 1.5-fold of each other in Ki: 2230 nM for the first, 2960 nM for the second.

`COc1ccc(C(c2ccc(N(C)C)cc2)c2ccc(N(C)C)cc2)cc1` [Example 38, 4',4"bis(dimethylamino)-4-methoxytriphenylmethane] and `CN(C)c1ccc(C(c2ccc(N(C)C)cc2)c2cc(NC(=O)c3ccc([N+](=O)[O-])cc3)ccc2Cl)cc1` [Example 60, 4',4" bis(dimethylamino)-2-chloro-5-(4-nitrobenzamido)triphenylmethane] are within 1.5-fold of each other in Ki: 4710 nM for the first, 4650 nM for the second.

Going from `CN(C)c1ccc(C(c2ccc(N3CCOCC3)cc2)c2cc([N+](=O)[O-])ccc2Cl)cc1` (stereo not drawn) [Example 40, 4'-dimethylamino-4"-(N-morpholinyl)-2-chloro-5-nitrotriphenylmethane] to `CN(C)c1ccc(C(c2ccc(N3CCCC3)cc2)c2cc([N+](=O)[O-])ccc2Cl)cc1` (stereo not drawn) [Example 41, 4'-dimethylamino-4"-(N-pyrrolidinyl)-2-chloro-5-nitrotriphenylmethane], the Ki rises from 252 nM to 4490 nM (18-fold).

`CN(C)c1ccc(C(c2ccc(N3CCCCC3)cc2)c2cc([N+](=O)[O-])ccc2Cl)cc1` (stereo not drawn) [Example 46, 4'-dimethylamino-4"-(N-piperidinyl)-2-chloro-5-nitrotriphenylmethane] and `CN(C)c1ccc(C(c2ccc(N(C)CCOC(=O)c3ccccc3)cc2)c2cc([N+](=O)[O-])ccc2Cl)cc1` (stereo not drawn) [Example 50, 4'-dimethylamino-4"-(N-methyl-N-(2-benzoyloxyethyl)amino)-2-chloro-5-nitrotriphenylmethane] are within 1.5-fold of each other in Ki: 1160 nM for the first, 1630 nM for the second.

Same assay, conditions: [3H]-Dex ~0.9 nM, GRX cytosol, 4 °C overnight; Cheng-Prusoff; read-out: Ki (nM) GR

First: Clc1ccc(Cl)c(C(c2ccc(NCc3ccccc3)cc2)c2ccc(NCc3ccccc3)cc2)c1 [Example 37, 4',4" bis(N-benzylamino)-2,5-dichlorotriphenylmethane]
Second: CN(C)c1ccc(C(c2ccc(N(C)C)cc2)c2cc(NCc3ccco3)ccc2Cl)cc1 [Example 66, 4',4" bis(dimethylamino)-2-chloro-5-(2-furanylmethylamino)triphenylmethane]
The Ki of the first is 1.8-fold lower: 421 nM for the first, 757 nM for the second. The first binds more tightly here.

Going from `CN(C)c1ccc(C(c2ccc(N(C)C)cc2)c2cc(N)ccc2Cl)cc1` [Example 59, 4',4" bis(dimethylamino)-5-amino-2-chlorotriphenylmethane] to `CN(C)c1ccc(C(c2ccc(N(C)C)cc2)c2cc(Br)ccc2Cl)cc1` [Example 34, 4',4" bis(dimethylamino)-5-bromo-2-chlorotriphenylmethane], the Ki falls from 4600 nM to 725 nM (6.3-fold).

Compared with `COc1ccccc1C(c1ccc(N(C)C)cc1)c1ccc(N(C)C)cc1` [Example 8, 4',4" bis(dimethylamino)-2-methoxytriphenylmethane], `CN(C)c1ccc(C(c2ccc(N(C)C)cc2)c2ccccc2Cl)cc1` [Example 7, 4',4" bis(dimethylamino)-2-chlorotriphenylmethane] is 2.2-fold lower in Ki: 4290 nM for the first, 1990 nM for the second.

Going from `CN(C)c1ccc(C(c2ccccc2)c2ccccc2Cl)cc1` (stereo not drawn) [Example 58, 4'-dimethylamino-2-chlorotriphenylmethane] to `CN(C)c1ccc(C(Nc2ccccc2)c2cc([N+](=O)[O-])ccc2Cl)cc1` (stereo not drawn) [Example 55, phenyl-[(4'-dimethylaminophenyl)-(2-chloro-5-nitrophenyl)methyl] amine], the Ki falls from 4300 nM to 1680 nM (2.6-fold). The second binds more tightly here.

`O=[N+]([O-])c1ccc(Cl)c(C(c2ccc(N3CCCC3)cc2)c2ccc(N3CCCC3)cc2)c1` [Example 29, 4',4" bis(N-pyrrolidinyl)-2-chloro-5-nitrotriphenylmethane] and `O=[N+]([O-])c1ccc(Cl)c(C(c2ccc(N3CCCCC3)cc2)c2ccc(N3CCCCC3)cc2)c1` [Example 13, 4',4" bis(N-piperidinyl)-2-chloro-5-nitrotriphenylmethane] are within 1.5-fold of each other in Ki: 4560 nM for the first, 5000 nM for the second.

Going from `CN(C)c1ccc(C(c2ccc(N(C)C)cc2)c2cc(N=Cc3ccco3)ccc2Cl)cc1` [Example 65, 4',4" bis(dimethylamino)-2-chloro-5-(2-furanylmethylimino)triphenylmethane] to `CC(=O)Nc1ccc(Cl)c(C(c2ccc(N(C)C)cc2)c2ccc(N(C)C)cc2)c1` [Example 3, 4',4" bis(dimethylamino)-5-acetamido-2-chlorotriphenylmethane], the Ki rises from 1790 nM to 5150 nM (2.9-fold). The first binds more tightly here.

First: CN(C)c1ccc(C(c2ccc(N(C)C)cc2)c2ccc([N+](=O)[O-])cc2)cc1 [Example 4, 4',4" bis(dimethylamino)-4-nitrotriphenylmethane]
Second: CN(C)c1ccc(C(c2ccc(N(C)C)cc2)c2cccc([N+](=O)[O-])c2)cc1 [Example 9, 4',4" bis(dimethylamino)-3-nitrotriphenylmethane]
The Ki of the first is 3.4-fold higher: 4650 nM for the first, 1380 nM for the second. The second binds more tightly here.

First: O=[N+]([O-])c1ccc(Cl)c(C(c2ccc(N3CCOCC3)cc2)c2ccc(N3CCOCC3)cc2)c1 [Example 22, 4',4" bis(N-morpholinyl)-2-chloro-5-nitrotriphenylmethane]
Second: Clc1cc(Cl)c(Cl)c(C(c2ccc(N3CCOCC3)cc2)c2ccc(N3CCOCC3)cc2)c1 [Example 28, 4',4" bis(N-morpholinyl)-2,3,5-trichlorotriphenylmethane]
The Ki of the first is 14-fold lower: 386 nM for the first, 5270 nM for the second. The first binds more tightly here.

`COC(=O)Nc1ccc(Cl)c(C(c2ccc(N(C)C)cc2)c2ccc(N(C)C)cc2)c1` [Example 64, 4',4" bis(dimethylamino)-2-chloro-5-(methoxycarbonylamino)triphenylmethane] and `CN(C)c1ccc(C(c2ccc(N(C)C)cc2)c2cc(N(S(C)(=O)=O)S(C)(=O)=O)ccc2Cl)cc1` [Example 63, 4',4" bis(dimethylamino)-2-chloro-5-(dimethylsulphonimido)triphenylmethane] are within 1.5-fold of each other in Ki: 5270 nM for the first, 4600 nM for the second.

First: CN(C)c1ccc(C(Oc2ccc(Cl)cc2)c2cc([N+](=O)[O-])ccc2Cl)cc1 (stereo not drawn) [Example 53, 4-chlorophenyl-[(4'-dimethylaminophenyl)-(2-chloro-5-nitrophenyl)methyl] ether]
Second: CN(C(=O)OC(C)(C)C)c1ccc(C(c2ccc(N(C)C(=O)OC(C)(C)C)cc2)c2cc([N+](=O)[O-])ccc2Cl)cc1 [Example 35, 4',4" bis(N-(t-butoxycarbonyl) N-methylamino)-2-chloro-5-nitrotriphenylmethane]
The Ki of the first is 5.8-fold lower: 788 nM for the first, 4560 nM for the second. The first binds more tightly here.
